Structures are written as SMILES. pIC50: −log10 of the molar value. In brackets after ≈: the same amount, converted by molar mass.

Consider 15 compounds from ChEMBL document CHEMBL1143254, “Structure-based design of novel 2-amino-6-phenyl-pyrimido[5',4':5,6]pyrimido[1,2-a]benzimidazol-5(6H)-ones as potent and orally active inhibitors of lymphocyte specific kinase (Lck): synthesis, SAR, and in vivo anti-inflammatory activity” (J Med Chem, 2008).

One data set relates to Lymphocyte. Briefly: Inhibition of T cell activation in human peripheral blood lymphocytes by mixed lymphocyte reaction. The format is functional, cell-based.
The target of data set [1] is Mitogen-activated protein kinase 14 (Homo sapiens, UniProt Q16539). The data set can be described thus: Inhibition of p38-alpha by HTRF assay.
Data set [2] addresses Proto-oncogene tyrosine-protein kinase Src (Homo sapiens, UniProt P12931). The data set can be described thus: Inhibition of Src by HTRF assay.
Data set [3] addresses Vascular endothelial growth factor receptor 2 (Homo sapiens, UniProt P35968). The data set can be described thus: Inhibition of KDR by HTRF assay.
Data set [4] has as its target Tyrosine-protein kinase Lck (Homo sapiens, UniProt P06239).
Description: Inhibition of Lck by HTRF assay
Another data set deals with T-cell. Briefly: Inhibition of anti-CD3/CD28-induced IL2 production in human T cells. It is filed as functional, cell-based.
The nature of data set [5]: Solubility in simulated intestinal fluid at pH 6.8. The format is physicochemical.

Chain of Mitogen-activated protein kinase 14 (Q16539 whole entry): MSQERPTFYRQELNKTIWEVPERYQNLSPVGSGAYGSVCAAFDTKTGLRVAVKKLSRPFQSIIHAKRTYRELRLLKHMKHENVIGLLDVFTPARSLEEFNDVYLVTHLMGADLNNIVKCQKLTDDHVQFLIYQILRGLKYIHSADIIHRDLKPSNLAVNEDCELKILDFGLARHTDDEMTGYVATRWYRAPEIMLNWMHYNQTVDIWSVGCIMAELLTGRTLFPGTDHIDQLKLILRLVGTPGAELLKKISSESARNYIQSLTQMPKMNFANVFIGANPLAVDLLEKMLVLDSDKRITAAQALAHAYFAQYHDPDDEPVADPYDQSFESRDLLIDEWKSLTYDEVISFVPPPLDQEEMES
Chain of Proto-oncogene tyrosine-protein kinase Src (P12931 2-536 limits assumed): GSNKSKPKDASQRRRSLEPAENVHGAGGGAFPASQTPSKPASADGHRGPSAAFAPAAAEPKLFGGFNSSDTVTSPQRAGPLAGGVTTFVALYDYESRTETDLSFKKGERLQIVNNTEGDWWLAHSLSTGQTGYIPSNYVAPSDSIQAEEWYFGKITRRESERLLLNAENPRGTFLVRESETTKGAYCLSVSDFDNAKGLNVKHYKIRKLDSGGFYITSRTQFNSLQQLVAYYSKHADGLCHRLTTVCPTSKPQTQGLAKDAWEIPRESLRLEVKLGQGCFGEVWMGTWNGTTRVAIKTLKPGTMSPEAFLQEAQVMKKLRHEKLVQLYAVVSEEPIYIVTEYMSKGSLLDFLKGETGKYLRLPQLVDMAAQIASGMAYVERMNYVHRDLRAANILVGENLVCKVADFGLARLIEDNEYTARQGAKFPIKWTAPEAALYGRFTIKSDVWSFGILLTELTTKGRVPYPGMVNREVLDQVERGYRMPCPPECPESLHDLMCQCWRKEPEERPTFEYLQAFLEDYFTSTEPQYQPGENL
Chain of Vascular endothelial growth factor receptor 2 (P35968 whole entry): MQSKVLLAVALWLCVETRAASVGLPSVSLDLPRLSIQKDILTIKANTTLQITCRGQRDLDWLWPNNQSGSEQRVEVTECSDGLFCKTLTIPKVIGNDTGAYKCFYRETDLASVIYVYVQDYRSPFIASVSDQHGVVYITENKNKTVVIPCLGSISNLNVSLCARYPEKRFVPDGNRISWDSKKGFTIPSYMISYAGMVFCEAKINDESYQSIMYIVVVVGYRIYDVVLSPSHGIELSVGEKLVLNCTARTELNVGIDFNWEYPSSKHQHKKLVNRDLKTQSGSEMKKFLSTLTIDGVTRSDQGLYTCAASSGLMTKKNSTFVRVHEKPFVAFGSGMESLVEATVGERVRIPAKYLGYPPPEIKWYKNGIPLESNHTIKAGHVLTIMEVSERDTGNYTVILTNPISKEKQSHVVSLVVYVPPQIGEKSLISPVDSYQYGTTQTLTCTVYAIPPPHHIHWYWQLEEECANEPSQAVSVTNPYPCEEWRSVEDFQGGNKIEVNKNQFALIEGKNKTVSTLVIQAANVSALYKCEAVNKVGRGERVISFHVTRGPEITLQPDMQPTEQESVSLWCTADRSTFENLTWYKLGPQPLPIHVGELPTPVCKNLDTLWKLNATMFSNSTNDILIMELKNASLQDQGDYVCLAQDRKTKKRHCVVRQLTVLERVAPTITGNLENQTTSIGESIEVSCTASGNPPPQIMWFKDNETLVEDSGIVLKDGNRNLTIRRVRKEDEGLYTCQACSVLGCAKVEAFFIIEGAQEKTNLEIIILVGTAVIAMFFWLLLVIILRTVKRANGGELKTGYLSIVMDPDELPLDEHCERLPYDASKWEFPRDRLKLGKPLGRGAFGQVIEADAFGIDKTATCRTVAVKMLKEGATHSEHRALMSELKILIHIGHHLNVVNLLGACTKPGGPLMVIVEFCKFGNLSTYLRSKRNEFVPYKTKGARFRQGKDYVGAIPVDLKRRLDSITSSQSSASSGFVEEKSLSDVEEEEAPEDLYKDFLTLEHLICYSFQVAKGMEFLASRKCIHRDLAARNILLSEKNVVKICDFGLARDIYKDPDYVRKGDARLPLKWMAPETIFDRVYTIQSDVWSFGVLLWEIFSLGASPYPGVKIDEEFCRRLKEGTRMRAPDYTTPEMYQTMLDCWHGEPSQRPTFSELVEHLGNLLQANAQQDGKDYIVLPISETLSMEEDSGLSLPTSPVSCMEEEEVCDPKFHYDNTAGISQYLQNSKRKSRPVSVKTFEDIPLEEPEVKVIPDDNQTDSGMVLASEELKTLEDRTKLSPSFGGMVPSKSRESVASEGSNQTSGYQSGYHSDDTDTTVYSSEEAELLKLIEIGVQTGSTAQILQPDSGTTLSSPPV
Chain of Tyrosine-protein kinase Lck (P06239 whole entry): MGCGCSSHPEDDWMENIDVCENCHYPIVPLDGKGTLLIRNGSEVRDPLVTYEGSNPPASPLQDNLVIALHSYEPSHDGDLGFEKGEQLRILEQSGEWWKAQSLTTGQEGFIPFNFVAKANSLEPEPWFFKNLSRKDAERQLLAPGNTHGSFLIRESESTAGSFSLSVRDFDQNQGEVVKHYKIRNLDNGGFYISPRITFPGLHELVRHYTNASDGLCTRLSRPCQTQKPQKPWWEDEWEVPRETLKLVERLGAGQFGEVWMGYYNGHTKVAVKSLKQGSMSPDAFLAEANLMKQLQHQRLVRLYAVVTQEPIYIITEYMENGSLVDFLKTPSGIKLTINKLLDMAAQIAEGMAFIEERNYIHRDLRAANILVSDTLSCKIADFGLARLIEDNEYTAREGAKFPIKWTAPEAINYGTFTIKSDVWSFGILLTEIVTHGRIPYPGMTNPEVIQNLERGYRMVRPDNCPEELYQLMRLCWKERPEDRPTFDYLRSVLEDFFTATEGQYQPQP

With `COc1cc(Nc2ncc3c(=O)n(-c4c(C)cccc4C)c4nc5ccccc5n4c3n2)ccc1OCCN1CCN(C)CC1`, the negative-log IC50 (pIC50) in the data set with Lymphocyte was 6.82; in data set [1] it was < 5.00; in data set [2], 6.62; in data set [3], 5.26; in data set [4], 7.72; in the data set with T-cell, 4.80.
As for `Cc1cccc(C)c1-n1c(=O)c2cnc(Nc3ccc(OCCCN4CCCCC4)cc3)nc2n2c3ccccc3nc12`, the pIC50 is 6.43 in the data set on Lymphocyte; 5.37 in data set [1]; 6.80 in data set [2]; 5.29 in data set [3]; 7.92 in data set [4]; 5.44 with T-cell. Further, the concentration in solution in data set [5] (solubility) was 101 µg/mL (≈ 176 µM).
Turning to `CN1CCN(c2ccc(Nc3ncc4c(=O)n(-c5c(Cl)cc(Cl)cc5Cl)c5nc6ccccc6n5c4n3)cc2)CC1`, the pIC50 was 6.85 with Lymphocyte; < 5.00 in data set [1]; 7.46 in data set [2]; 6.32 in data set [3]; 8.10 in data set [4].
The corresponding values for `Cc1cccc(C)c1-n1c(=O)c2cnc(Nc3ccc(OCCN(C)C)cc3)nc2n2c3ccccc3nc12` are 7.08, < 5.00, 6.36, 5.18 and 7.55.
As to `CCCCOc1ccc(-n2c(=O)c3cnc(Nc4ccc(N5CCN(C)CC5)cc4)nc3n3c4ccccc4nc23)cc1`, the negative logarithm of the IC50 (pIC50) in data set [2] was 5.08; in data set [3], < 4.60; in data set [4], 5.34.
With `COc1cc(Nc2ncnc(-n3c(Nc4c(C)cccc4C)nc4ccccc43)n2)cc(OC)c1OC`, the negative logarithm of the IC50 (pIC50) in data set [1] is 7.11; in data set [3], 8.40; in data set [4] it was 9.00.
On to `Cc1cccc(C)c1-n1c(=O)c2cnc(Nc3ccc(OCCCN(C)C)cc3)nc2n2c3ccccc3nc12`, for which the pIC50 in the data set on Lymphocyte was 7.00; in data set [1] it was < 5.00; in data set [2], 6.44; in data set [3] it was 5.38; with T-cell it was 5.96. Further, the solubility in data set [5] is 155 µg/mL (≈ 290 µM).
Consider `Cc1ccc(-n2c(=O)c3cnc(Nc4ccc(N5CCN(C)CC5)cc4)nc3n3c4ccccc4nc23)cc1`, for which the negative logarithm of the IC50 (pIC50) in data set [2] is 5.77; in data set [3] it was < 4.60; in data set [4] it was 6.46.
On to `Cc1cccc(-n2c(=O)c3cnc(Nc4ccc(N5CCN(C)CC5)cc4)nc3n3c4ccccc4nc23)c1`, for which the pIC50 in data set [2] was 6.00; in data set [3], < 4.60; in data set [4], 7.02.
The corresponding values for `COc1cccc(-n2c(=O)c3cnc(Nc4ccc(N5CCN(C)CC5)cc4)nc3n3c4ccccc4nc23)c1` are 5.72, 5.08 and 6.72.
For `COc1cc(Nc2ncc3c(=O)n(-c4c(C)cccc4C)c4nc5ccccc5n4c3n2)cc(OC)c1OCCCN1CCN(C)CC1`, the pIC50 in the data set on Lymphocyte was 7.10; in data set [1] it was < 5.00; in data set [2], 7.15; in data set [3], 5.40; in data set [4] it was 8.22; in the data set on T-cell, 6.72.
For the compound `CN1CCN(c2ccc(Nc3ncc4c(=O)n(-c5c(Cl)cccc5Cl)c5nc6ccccc6n5c4n3)cc2)CC1`, the negative logarithm of the IC50 (pIC50) is 5.96 in the data set on Lymphocyte, 7.31 in data set [2], 6.28 in data set [3] and 8.00 in data set [4].
In data set [1], `COc1cc(Nc2ncnc(-n3c(Nc4ccccc4)nc4ccccc43)n2)cc(OC)c1OC` had a pIC50 of 6.33.
`COc1ccc(Cl)cc1-n1c(=O)c2cnc(Nc3ccc(N4CCN(C)CC4)cc3)nc2n2c3ccccc3nc12`: the negative-log IC50 (pIC50) in the data set with Lymphocyte was 6.00; in data set [2], 5.85; in data set [3] it was < 4.60; in data set [4] it was 7.64.
Turning to `Cc1cccc(C)c1-n1c(=O)c2cnc(Nc3ccc(OCCN4CCN(C)CC4)c(F)c3)nc2n2c3ccccc3nc12`, the pIC50 with Lymphocyte was 6.29; in data set [1], < 5.00; in data set [2] it was 6.80; in data set [3], 5.13; in data set [4], 7.64; with T-cell, 5.57.

For orientation: pIC50 means −log10 of the IC50, conventionally taken in molar units. The low end stands for a large IC50, the high end for a small IC50. Broadly, the solubility is the dissolved amount per volume that the medium holds. A lower solubility goes with a poorly soluble substance.
